11 molecules from US7179840B2, “Furancarboxamides” (Bayer CropScience AG, priority 2002, dated 2007) can be followed below.

The structures appear in SMILES notation.

Series [1] in a line: logP determination by HPLC (reversed-phase C18), acidic range. It is filed as physicochemical. As to conditions: pH 2.3, C18, 43° C., 0.1% aqueous phosphoric acid/acetonitrile. The procedure:
The logP values given in the Preparation Examples were determined in accordance with EEC Directive 79/831 Annex V.A8 by HPLC (High Performance Liquid Chromatography) using a reversed-phase column (C 18). Temperature: 43° C.
Mobile phases for the determination in the acidic range: 0.1% aqueous phosphoric acid, acetonitrile; linear gradient from 10% acetonitrile to 90% acetonitrile.
Calibration was carried out using unbranched alkan-2-ones (having 3 to 16 carbon atoms) with known logP values (determination of the logP values by the retention times using linear interpolation between two successive alkanones).

A further series has as its system Venturia inaequalis. Kind of series: Venturia Test (Apple)/Protective. It is filed as in vivo. As to conditions: 240 h, protective, application rate 100 g/ha, evaluation 10 days after inoculation, read-out: Efficacy in %. The protocol:
Venturia Test (Apple)/Protective
(§1) To produce a suitable preparation of active compound, 1 part by weight of active compound is mixed with the stated amounts of solvent and emulsifier, and the concentrate is diluted with water to the desired concentration.
To test for protective activity, young plants are sprayed with the preparation of active compound at the stated application rate. After the spray coating has dried on, the plants are inoculated with an aqueous conidia suspension of the apple scab pathogen Venturia inaequalis and then remained in an incubation cabin at about 20° C. and 100% relative atmospheric humidity for 1 day.
The plants are then placed in a greenhouse at about 21° C. and a relative atmospheric humidity of about 90%.
(§2) Evaluation is carried out 10 days after the inoculation. 0% means an efficacy which corresponds to that of the control, whereas efficacy of 100% means that no infection is observed.

The subject of a further series is Alternaria solani. Kind of series: Alternaria Test (Tomato)/Protective. The settings on record: 48 h, protective, application rate 100 g/ha, evaluation 2 days after inoculation, read-out: Efficacy in %. It is filed as in vivo. The procedure: Alternaria Test (Tomato)/Protective
as §1
To test for protective activity, young tomato plants are sprayed with the preparation of active compound at the stated application rate. 1 day after the treatment, the plants are inoculated with an aqueous spore suspension of Alternaria solani. The plants are then placed in an incubation cabin at about 20° C. and 100% relative atmospheric humidity.
Evaluation is carried out 2 days after the inoculation. 0% means an efficacy which corresponds to that of the control, whereas efficacy of 100% means that no infection is observed.

In another series the test system is Sphaerotheca fuliginea. Kind of series: Sphaerotheca Test (Cucumber)/Protective. It is filed as in vivo. As to conditions: protective, application rate 750 g/ha, evaluation 7 days after inoculation. The procedure: Sphaerotheca Test (Cucumber)/Protective
as §1
To test for protective activity, young cucumber plants are sprayed with the preparation of active compound at the stated application rate. 1 day after the treatment, the plants are inoculated with a spore suspension of Sphaerotheca fuliginea. The plants are then placed in a greenhouse at 70% relative atmospheric humidity and temperature of 23° C.
(§3) Evaluation is carried out 7 days after the inoculation. 0% means an efficacy which corresponds to that of the control, whereas efficacy of 100% means that no infection is observed.

The next series deals with Podosphaera leucotricha. Kind of series: Podosphaera Test (Apple)/Protective. It is filed as in vivo. The settings on record: 240 h, protective, application rate 100 g/ha, evaluation 10 days after inoculation, read-out: Efficacy in %. The protocol: Podosphaera Test (Apple)/Protective
as §1
To test for protective activity, young plants are sprayed with the preparation of active compound at the stated application rate. After the spray coating has dried on, the plants are inoculated with an aqueous spore suspension of the apple mildew pathogen Podosphaera leucotricha. The plants are then placed in a greenhouse at about 23° C. and a relative atmospheric humidity of about 70%.
as §2

For the next series, the system named is Pyrenophora teres. Kind of series: Pyrenophora teres Test (Barley)/Protective. It is filed as in vivo. As to conditions: protective, application rate 500 g/ha, evaluation 7 days after inoculation. The procedure: Pyrenophora teres Test (Barley)/Protective
as §1
To test for protective activity, young plants are sprayed with the preparation of active compound at the stated application rate. After the spray coating has dried on, the plants are sprayed with a conidia suspension of Pyrenophora teres. The plants remain in an incubation cabin at 20° C. and 100% relative atmospheric humidity for 48 h. The plants are then placed in a greenhouse at a temperature of about 20° C. and a relative atmospheric humidity of about 80%.
as §3

Regarding `Cc1occc1C(=O)Nc1ccccc1-c1ccc(Cl)cc1F` [Example 1, N-(4′-chloro-2′-fluoro-1,1′-biphenyl-2-yl)-2-methyl-3-furamide], in series [1] (reversed-phase C18 HPLC column), the chromatographic logP – broadly, lipophilicity estimated from chromatographic retention – is 3.38.
In series [1], `Cc1occc1C(=O)Nc1ccccc1-c1ccc(Br)cc1` [Example 2] came in with a chromatographic logP of 3.71. The pest or weed control at 100 g/ha with Venturia inaequalis and with Alternaria solani was 100% throughout. This molecule also returned an Efficacy in % in the series on Sphaerotheca fuliginea of 90%.
The molecule `Cc1occc1C(=O)Nc1ccccc1-c1ccc(C(F)(F)F)cc1` [Example 3] gave a chromatographic logP in series [1] of 3.53. The results for the pest or weed control at 100 g/ha in the series on Podosphaera leucotricha, with Venturia inaequalis and in the series on Alternaria solani were 93%, 100% and 100%, respectively. The Efficacy in % with Sphaerotheca fuliginea is listed as 100%.
Regarding `Cc1occc1C(=O)Nc1ccccc1-c1cccc(Cl)c1` [Example 4], the chromatographic logP in series [1] came to 3.58. Also, the pest or weed control at 100 g/ha with Podosphaera leucotricha was 100%; in the series on Venturia inaequalis, 100%; in the series on Alternaria solani, 98%. Besides, in the series on Sphaerotheca fuliginea, the Efficacy in % came out at 95%.
Turning to `Cc1occc1C(=O)Nc1ccccc1-c1ccc(OC(F)(F)F)cc1` [Example 5], the chromatographic logP in series [1] was found to be 3.91. The values for the pest or weed control at 100 g/ha with Podosphaera leucotricha, in the series with Venturia inaequalis and in the series on Alternaria solani were 93%, 100% and 92%, respectively.
In series [1], `CSc1ccc(-c2ccccc2NC(=O)c2ccoc2C)cc1` [Example 6] yielded a chromatographic logP of 3.63. Further, the pest or weed control at 100 g/ha in the series on Podosphaera leucotricha came out at 92%; in the series with Venturia inaequalis it was 100%; in the series on Alternaria solani, 95%.
In the case of `Cc1occc1C(=O)Nc1ccccc1-c1ccc(F)c(F)c1` [Example 8], in series [1], the chromatographic logP was found to be 3.22. Also, the pest or weed control at 100 g/ha in the series with Podosphaera leucotricha stood at 85%; in the series with Venturia inaequalis, 100%; with Alternaria solani, 82%.
For `Cc1occc1C(=O)Nc1ccccc1-c1ccc(Cl)c(F)c1` [Example 9], the chromatographic logP in series [1] stood at 3.43. The figures for the pest or weed control at 100 g/ha with Podosphaera leucotricha, in the series with Venturia inaequalis and with Alternaria solani were 97%, 100% and 100%, respectively.
In the case of `Cc1occc1C(=O)Nc1ccccc1-c1ccc(F)c(Cl)c1` [Example 10], in series [1], the chromatographic logP is 3.46. Besides, the values for the pest or weed control at 100 g/ha in the series with Podosphaera leucotricha, with Venturia inaequalis and in the series on Alternaria solani were 100%, 100% and 95%, respectively.
Turning to `Cc1occc1C(=O)Nc1ccccc1-c1ccc(Cl)c(Cl)c1` [Example 15], in series [1], the chromatographic logP was found to be 3.73. Also, the pest or weed control at 100 g/ha in the series with Podosphaera leucotricha amounted to 100%; with Venturia inaequalis it was 100%; with Alternaria solani it was 96%. Further, in the series on Pyrenophora teres, the Efficacy in % is on record as 90%.
In series [1], `Cc1occc1C(=O)Nc1ccccc1-c1cc(Cl)cc(Cl)c1` [Example 16] had a chromatographic logP of 3.9. The same molecule returned an Efficacy in % in the series on Sphaerotheca fuliginea of 90%.
